Laboratory results published in article PMC2565697, “HLA Class I-T Cell Epitopes from trans-Sialidase Proteins Reveal Functionally Distinct Subsets of CD8^+ T Cells in Chronic Chagas Disease” (PLoS Neglected Tropical Diseases, 2008).
Ends that are not written are not given here.

System: PBMC from HLA-A2.1+ patients with chronic Chagas disease
Experiment: IFN-γ ELISPOT with individual HLA-A0201-binding ts peptides in HLA-A2.1+ subjects
Type: cell-based, human
Conditions: HLA-A2.1+ patients group G0, peptide 10 µg/ml, 4×10^5 PBMC/well, 16–20 hr, positive: >=25 SFCs/10^6 PBMC and at least twice media alone

Sequence | No. of positive responders/total no. of subjects assayed (%), G0
FTNNKFTLS [Ts 68] | 0/6

Same assay, conditions: HLA-A2.1+ patients group G1, peptide 10 µg/ml, 16–20 hr

Sequence | No. of positive responders/total no. of subjects assayed (%), G1
FTNNKFTLS [Ts 68] | 0/5

Same assay, conditions: HLA-A2.1+ patients group G2/G3, peptide 10 µg/ml, 16–20 hr

Sequence | No. of positive responders/total no. of subjects assayed (%), G2/G3
FTNNKFTLS [Ts 68] | 0/8

System: PBMC from chronic Chagas disease subjects
Experiment: IFN-γ ELISPOT with supertype peptide pools, single peptides or lysate in non-HLA-typed G0 subjects
Type: cell-based, human
Conditions: single peptides 10 µg/ml, representative results from single individuals, media alone subtracted (media alone 13±10)
Procedure: The number of peptide-specific IFN-γ and IL-2-secreting T cells was determined by ex vivo ELISPOT using commercial kits (Becton & Dickinson, San Diego, CA). Cryopreserved PBMC from chronic chagasic subjects were seeded in triplicate wells at a concentration of 4×10^5/well, and stimulated with individual peptides (10 µg/ml), peptide pools (7–13 peptides per pool, 5 µg/ml/peptide) comprising HLA A01 (2 pools), A02 (2 pools), A03 (2 pools), A24 (2 pools), B07 (1 pool) or B44 (1 pool)-binding peptides or T. cruzi lysate (10 µg/ml) for 16–20 hr at 37°C and 5% CO2. For controls, cells were incubated with complete RPMI, A2-restricted HIV Pol (amino acids 510–518: […]), A2-restricted flu matrix 1 (amino acids 58–66: […]) or 50 ng/ml […] and 500 nM ionomicin (Sigma). Spot forming cells (SFCs) were automatically enumerated using ImmunoSpot analyzer (CTL).
The mean number of SFCs in triplicate wells was obtained for each condition, and the number of specific IFN-γ and IL-2-secreting T cells (net SFCs), was calculated by subtracting the value of the wells containing media alone from the peptide/mitogen-stimulated spot count. Responses were considered significant if a minimum of 25 SFCs/1×10^6 PBMC were present per well, and additionally, this number was at least twice the value of wells with media alone.
The number of annotated T. cruzi genes containing supertype-binding epitopes was then used to prioritize peptides to be assessed for recognition by CD8^+ T cells from a group of non-HLA-typed chagasic subjects (Table 2). IFN-γ ELISPOT responses to peptide pools containing a total of ninety-six epitopes representing HLA A01 (18 epitopes), HLA A02 (20 epitopes), HLA A03 (20 epitopes), HLA A24 (14 epitopes), HLA B07 (11 epitopes) and HLA-B44 (13 epitopes) supertypes were evaluated in 25 chronic Chagas disease subjects without clinical and radiological evidence of heart disease (G0 status) regardless of their HLA type. […] Four subjects had positive responses to more than one supertype (3 of these subjects recognized both HLA-A02 and HLA-A03-binding peptides, Fig. 1). It is noteworthy that responses to HLA-A02 and HLA03 supertype-restricted epitopes covered 77% of the total responses detected, consistent with the high worldwide frequency of these alleles.

Sequence | No. Net IFN-γ SFCs/10^6 PBMC [SFCs/10^6 PBMC]
ITATIEGRK | 50
LVTLPVYSK | 15
MLVTLPVYS | 15
FVSPSLVSA | 18
FTSAVLLLL | 25
NVMLVTLPV | 18
HNFTLVASV | 15
TSAVLLLLVV | 18
VTDNNRSFY | 30
AVAEAQCKK | 18
RVLLLLLLGL | 20
FTLVATVSI | 70
LWLTDNTHI | 463
LLLLVVMMCC | 18
VALMLQGNK | 18
FQGAWAEWPV | 32
FLYNRPLNS | 18
LLLGLWGFA | 30
MLSRVAAVK | 38
FTLVASVTI | 35
IYMLVGKYS | 65
HLFYSAVLL | 40

Biological target: HLA-A2.1 molecule (Homo sapiens, UniProt P04439, D140Y/D185E/D98H/E176V/E277Q/G131W/G231S/I119V/I121R/I166T/I218V/L300P/L318F/N151K/N90K/P208A/P217A/Q86G/Q94H/R138H/R169H/T345S)
Experiment: HLA-A class I binding assay (competitive inhibition of radiolabeled probe peptide)
Conditions: competitive inhibition of binding of radiolabeled standard probe peptide to purified detergent-solubilized HLA-A2.1

Sequence | IC50 [nM]
FLSHDFTLV [Ts 24] | 0.46
LLGLWVFAAL [Ts 2] | 36
ELLRPTTLV [Ts 52] | 2410
FANHKFTLV [Ts 38] | 148
SLSHYFTLVF [Ts 26] | 1.6
FVDYNFSLV [Ts 47] | 1.1
FVNYNFTLV [Ts 45] | 0.25
RVSRPTTVV [Ts 58] | 2490
RLLPSLLLLL [Ts 4] | 0.8
LLGLWGTAAL [Ts 13] | 499
FANHDFTLV [Ts 34] | 101
FANYKFTLV [Ts 44] | 49
GLLPSLLLLL [Ts 3] | 3.1
FTNNKFTLS [Ts 68] | > 50000
LLGLWGLATA [Ts 6] | 24
FANYNFTLV [Ts 48] | 0.47
FVSCDFTIV [Ts 35] | 30
IANYNFTLV [Ts 56] | 29600
FLSHNFTLVF [Ts 27] | 0.61
FANYNFTLL [Ts 51] | 1500
FVNHRFTLV [Ts 37] | 304
FANNKFTLV [Ts 43] | 116
